Experimental data taken from US20100137260A1, “COMPOUND FOR INHIBITING TRPV3 FUNCTION AND USE THEREOF” (Korea University Industry and Academic Collaboration …, priority 2008, published 2010).

Tested on: HaCat skin cells
Assay: Artificial wound recovery (cell migration and proliferation) in HaCat cells (FIG. 3)
Assay type: cell-based
Details: 12 hours; for Migration and proliferation of HaCaT cells in medium containing camphor: medium containing 4 mM camphor, IPP 10 μM, FPP 1 μM, GPP 10 μM
Method: The present inventors drew lines 1 mm deep on the well fully filled with the cells to make artificial wound. The wounded cells were treated with IPP (10 μM), FPP (1 μM) and GPP (10 μM: geranyl pyrophosphate, Biomol, USA) respectively and incubated in a CO2 incubator for 12 hours. The control group was not-treated. The width of recovered wound was measured under microscope and compared with that at the beginning, which was presented as wound recovery rate. All the experiments were performed on DMEM/FBS. Floating cells, which means dead cells, after making wound, were eliminated by using PBS to eliminate variables caused by dead cells. The cells were observed under microscope (×40), and distance was measured by using image analysis program (Meta-flour 7.1 Molecular Devices, USA).

Row | SMILES | Migration and proliferation of HaCat skin cells, compound alone (FPP alone (1 μM)) | Migration and proliferation of HaCaT cells in medium containing camphor
1 | CC(C)=CCC/C(C)=C/CC/C(C)=C/COP(=O)(O)OP(=O)(O)O [FPP] | confirmed the inhibitory effect | inhibitory effect was not observed
2 | CC(C)=CCC/C(C)=C/COP(=O)(O)OP(=O)(O)O [GPP, geranyl pyrophosphate] | – | inhibitory effect was not observed
